In patent US11679168B2, “Caspase-3-triggered molecular self-assembling PET probes and uses thereof” (The Board of Trustees of the Leland Stanford Junior …, priority 2018, dated 2023):

Legend:
[1] = system: H460 tumor; assay: PET/CT imaging of H460 tumor-bearing mice; type: in vivo
Description: (§1) FIGS. 4A and 4D illustrate representative 55- to 60-min axial and sagittal fused PET/CT images. Nude mice received approximately 200 μCi of [18F]-C-SNAT4 via tail vein injection, with PET/CT images acquired at 55 to 60 min after injection. Arrowheads indicate the tumor, identified from the CT images. H460 and H1299 tumor bearing mice were naïve, or 24 h following last dose of cisplatin treatment (Low dose: 3 mg/kg every other day for three times; high dose: 9 mg/kg every other day for three times).
(§2) Animal model and probe administration: For subcutaneous tumor models, H460 or H1299 (2×10^6 cells in 100 μl of PBS) were injection subcutaneously on the back of female nu/nu nude mice (aged 6 to 8 weeks; Charles River Laboratories). Tumor dimensions were measured periodically using a caliper (by the same researcher), with tumor volumes calculated by the following equation: volume=a×b×c/2, where a, b, and c represent three orthogonal axis of the tumor. Treatment-response analysis was performed 24 h after drug treatment. For all other experiments, animals were culled 26 h after therapy and tissues excised for analysis. For chemotherapy mouse model, tumors were grown to about 150 mm^3, and then treatment that consisted of cisplatin (Sigma-Aldrich; Low dose: 3 mg/kg; high dose: 9 mg/kg) or saline was initiated through intravenous administration, every other day for three times. Total mouse body weight and tumor size were measured every other day. Treat or left untreated. For radiotherapy mouse model, treatment consisted of two fractions of 5 Gy or 2 Gy dose of radiation therapy delivered with a single 225 kV beam using the Kimtron IC 225 irradiator (Kimtron Medical, CT, USA).
(§3) Small-animal PET/CT imaging and analysis: PET/CT imaging was carried out on a docked Siemens Inveon PET/CT scanner (matrix size, 128×128×159; CT attenuation-corrected; non-scatter corrected) (Siemens Medical Solutions USA) following a bolus intravenous injection of approximately 200 μCi of [^18F]-C-SNAT4 into tumor-bearing mice (n=56, 3-4 mice per group). Dynamic scans were acquired in list mode format over 90 min, and sorted into 22 times of frames, 0.5-mm sinogram bins for image reconstruction (4×15 s, 4×60 s, 11×300 s, 3×600 s). Mice were anesthetized with 2% isoflurane near the center of the FOV to ensure the highest image resolution and sensitivity. Iterative reconstruction was performed using 3D ordered-subsets expectation maximization (3D-OSEM) followed by fast maximum a posteriori (fast MAP) with the following parameters: MAP OSEM iterations, 2; MAP subsets, 16; MAP iterations, 18. Siemens Inveon Research Workplace software v.4.0 was used for visualization of radiotracer uptake in the tumor, to define the three-dimensional (3D) volumes of interest (VOI) and for 3D-visualisation to create volume rendering technique (VRT) images. The relative tumor or organ radioactivity concentrations were from mean pixel values within the multiple ROI volumes. The radioactivity concentration within organs was obtained from mean pixel values with in the VOI and converted to counts per milliliter per min and then divided by the injected dose (ID) to obtain an imaging VOI-derived percentage of the injected radioactive dose per cubic centimeter of tissue (% ID/cc).

[2] = system: H1299 tumor; assay: PET/CT imaging of H1299 tumor-bearing mice; type: in vivo; details: for radioactivity retention in tumor: 85 min post-injection
Description: as §1, §2, §3

[3] = Ex vivo biodistribution in H460 tumor-bearing mice; details: 2 h post injection
Description: FIG. 20 illustrates biodistribution of [^18F]-C-SNAT4 in H460 tumor-bearing female nude mice. Mice were administered approximately 200 μCi [^18F]-C-SNAT4, animal were exsanguinated through the left ventricle and indicated tissues were excised at 2 hours post-injection in mice bearing naïve-tumor (black) or drug-treated tumor (gray). Data represent the mean±S.D. (n=4 animals per groups)
Biodistribution study: H460 or H1299 tumor-bearing female nude mice were administered approximately 7.4 MBq of [^18F]-C-SNAT4 via the tail vein (n=4-5 per group). Mice were maintained under anesthesia and warmed to 37° C. to replicate imaging conditions. At 90 min after [^18F]-C-SNAT4 injection, animals were sacrificed by exsanguination via cardiac puncture. For all animals, tumors were excised immediately upon death, weighed using pre-weighted tubes, and rapidly placed in 10% formalin (Fisher Scientific) for fixation. Tumor and tissue decay-corrected radioactivity was subsequently determined using a Cobra II Auto-Gamma counter (Packard Biosciences Co, UK.) Predefined 1.85 MBq (50 μCi) standards (50 μl) were also counter for data normalization to injected dose. Data were expressed as percent injected dose per gram of tissue (% ID/g).

[4] = H460, 2 Gy-treated tumor, [18F]-C-SNAT4 only

clearance route [3]: predominantly renal clearance
SMILES: CCSSCC(NC(=O)C(CC(=O)O)NC(=O)C(NC(=O)C(CCC(=O)O)NC(=O)C(CC(=O)O)NC(C)=O)C(C)C)C(=O)NCC(=O)NC(Cc1cn(CCOCCOCCOCC[18F])nn1)C(=O)NCc1ccc(C(=O)NCCCOc2cnc(C#N)nc2)cc1 (centres unmarked) [[^18F]-C-SNAT4]
AUC of time activity curve [1, 4]: 123.6±30.9 % ID min/cc
tumor uptake [1, 4]: 1.2±0.3 % ID/cc
AUC of time activity curve ([1]; H460, 5 Gy-treated, hot tracer only, t=0 to 85 min): 279.4±16.6 % ID min/cc
tumor uptake ([1]; H460, high dose cisplatin (9 mg/kg x3) treated, 85 min post-injection): 1.7±0.1 % ID/cc
AUC of time activity curve ([1]; H460, high dose cisplatin treated, t=0 to 85 min): 148.9±10.1 % ID min/cc
tumor uptake ([1]; H460, low dose cisplatin (3 mg/kg x3) treated, 85 min post-injection): 1.2±0.1 % ID/cc
AUC of time activity curve ([1]; H460, low dose cisplatin treated, t=0 to 85 min): 116.7±6.0 % ID min/cc
AUC of time activity curve ([1]; H460, naive tumor, t=0 to 85 min): 67.5±12.0 % ID min/cc
tumor uptake ([1]; H460, naïve animals, 85 min post-injection): 0.7±0.11 % ID/cc
AUC of time activity curve ([1]; H460, naïve tumors (2 Gy experiment)): 92.1±20.9 % ID min/cc
tumor uptake ([1]; H460, two fractions of 5 Gy, hot tracer only, 85 min post injection): 1.0±0.3 % ID/cc
tumor uptake ([1]; H460, untreated tumor (2 Gy experiment)): 0.8±0.1 % ID/cc
tumor uptake ([1]; H460, untreated tumor, hot tracer (mixture comparison), 85 min): 0.4±0.1 % ID/cc
AUC of time activity curve ([2]; H1299, high doses cisplatin): 64.2±27.8 % ID min/cc
radioactivity retention in tumor ([2]; H1299, high doses cisplatin): 0.5±0.3 % ID/cc
AUC of time activity curve ([2]; H1299, low doses cisplatin): 66.0±6.8 % ID min/cc
radioactivity retention in tumor ([2]; H1299, low doses cisplatin): 0.4±0.2 % ID/cc
AUC of time activity curve ([2]; H1299, saline): 41.2±25.4 % ID min/cc
radioactivity retention in tumor ([2]; H1299, saline): 0.4±0.1 % ID/cc
